The source of these data is ChEMBL document CHEMBL1208684 (Eur J Med Chem, 2010).

One assay concerns PtK2. The assay is described as follows: Disruption of microtubule network in rat kangaroo PtK2 cells at 5 uM after 1 hr by immunofluorescence microscopic analysis. Type of assay: functional, cell-based. Conditions: Potorous tridactylus.
The next assay deals with K562. In words: Antiproliferative activity against human K562 cells after 48 hrs. The assay is classed as functional, cell-based. Conditions: K562, 48 h.
For a further assay, the target named is Tubulin (Sus scrofa, UniProt P02554+P02550). In words: Inhibition of pig brain tubulin polymerization after 30 mins by turbidimetry.

Usually IC50 stands for the concentration that inhibits the measured activity by half. The low end stands for inhibition by little substance, the high end for a need for much substance.

The source made the active and inactive calls. The calls are words filed in the database; no cut-off is given here.

`COc1cc(C(=O)/C=C2\c3cccc(Cl)c3C(=O)c3cccc(Cl)c32)cc(OC)c1OC`: the result in the assay on PtK2 was Active. Further, the figures for the IC50 in the assay with K562 and on Tubulin were 230 nM and 360 nM, respectively.
